Measured values: ChEMBL document CHEMBL1149524 (Bioorg Med Chem Lett, 2006)
Values after ≈ are worked out from the molar mass of the structure shown.

target: T1, Cathepsin K (Homo sapiens, UniProt P43235); assay: Inhibition of cathepsin K; format: single protein; conditions: not given
T1 sequence (P43235 whole entry): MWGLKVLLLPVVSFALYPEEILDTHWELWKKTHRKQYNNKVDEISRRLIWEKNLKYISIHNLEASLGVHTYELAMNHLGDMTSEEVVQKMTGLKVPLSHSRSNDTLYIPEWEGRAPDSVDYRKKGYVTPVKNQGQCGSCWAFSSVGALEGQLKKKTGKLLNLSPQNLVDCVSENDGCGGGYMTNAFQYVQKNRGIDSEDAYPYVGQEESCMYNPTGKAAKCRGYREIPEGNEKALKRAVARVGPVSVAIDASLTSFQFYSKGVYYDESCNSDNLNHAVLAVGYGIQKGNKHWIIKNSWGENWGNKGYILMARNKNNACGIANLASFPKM

SMILES | Ki
C[C@@H](CNc1ccc(OC(F)(F)F)cc1)NC(=O)[C@H](CC1CCCCC1)NC(=O)OC1CCOCC1 | 13300 nM
C[C@@H](CNc1ccc(OC(F)(F)F)cc1)NC(=O)[C@H](CC1CCCCC1)NC(=O)O[C@@H]1CCOC1 | > 30000 nM
C[C@@H](CNc1ccc(OC(F)(F)F)cc1)NC(=O)[C@H](CS(=O)(=O)Cc1ccccc1)NC(=O)N1CCOCC1 | > 100000 nM
C[C@@H](CNc1ccc(OC(F)(F)F)cc1)NC(=O)[C@H](CC1CCCCC1)NC(=O)C1CCOCC1 | 14300 nM
C[C@@H](CN1CCc2cc(F)ccc21)NC(=O)[C@H](CC1CCCCC1)NC(=O)N1CCOCC1 | 5130 nM
C[C@@H](CNc1ccc(OC(F)(F)F)cc1)NC(=O)[C@H](CC1CCCCC1)NC(=O)[C@@H]1CCCO1 | > 30000 nM
O=C(N[C@@H](CC1CCCCC1)C(=O)NCCNc1ccc(OC(F)(F)F)cc1)c1ccc(-c2cccc(F)c2)o1 | 11700 nM
O=C(NCCNc1ccc(OC(F)(F)F)cc1)[C@H](CC1CCCCC1)NC(=O)N1CCOCC1 | 18800 nM
O=C(N[C@@H](CC1CCCCC1)C(=O)NCCNc1ccc(OC(F)(F)F)cc1)c1ccoc1 | 9340 nM
O=C(NCCNc1ccc(OC(F)(F)F)cc1)[C@H](CC1CCCCC1)NC(=O)[C@H]1CCCO1 | > 30000 nM

Stronger by Ki, values ahead:

Ki | SMILES
130 nM | CC[C@@H](CNc1ccc(OC(F)(F)F)cc1)NC(=O)[C@H](CC1CCCCC1)NC(=O)N1CCOCC1
1330 nM | CC(C)(C)C[C@H](NC(=O)N1CCOCC1)C(=O)NCCNc1ccc(OC(F)(F)F)cc1
4610 nM | C[C@@H](CNc1ccc(OC(F)(F)F)cc1)NC(=O)[C@H](CC1CCCCC1)NC(=O)[C@H]1CCCO1
2480 nM | C[C@@H](CNc1ccc(OC(F)(F)F)cc1)NC(=O)[C@H](CSCc1ccccc1)NC(=O)N1CCOCC1

tested on: not listed separately; assay: AUC in Wistar rat at 10 mg/kg, po; format: ADME, organism-based; set-up: dose 10 mg/kg, route oral; conditions: plasma

AUC | SMILES
700 ng·h/mL | C[C@@H](CNc1ccc(OC(F)(F)F)cc1)NC(=O)[C@H](CS(=O)(=O)Cc1ccccc1)NC(=O)N1CCOCC1
1750 ng·h/mL | C[C@@H](CNc1ccc(OC(F)(F)F)cc1)NC(=O)[C@H](CC1CCCCC1)NC(=O)[C@H]1CCCO1

target: Cathepsin S (Homo sapiens, UniProt P25774); assay: Inhibition of cathepsin S; format: single protein; conditions: not given
Sequence (P25774 whole entry): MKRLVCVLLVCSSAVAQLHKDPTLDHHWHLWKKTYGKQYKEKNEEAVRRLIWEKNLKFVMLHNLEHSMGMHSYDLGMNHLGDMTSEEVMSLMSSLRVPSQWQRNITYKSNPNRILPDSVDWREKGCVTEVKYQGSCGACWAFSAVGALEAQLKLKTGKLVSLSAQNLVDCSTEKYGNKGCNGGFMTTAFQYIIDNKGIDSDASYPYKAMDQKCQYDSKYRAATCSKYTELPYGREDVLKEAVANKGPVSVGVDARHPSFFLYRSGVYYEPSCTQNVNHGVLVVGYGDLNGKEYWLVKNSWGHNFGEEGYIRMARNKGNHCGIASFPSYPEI

SMILES | Ki
C[C@@H](CNc1ccc(OC(F)(F)F)cc1)NC(=O)[C@H](CC1CCCCC1)NC(=O)OC1CCOCC1 | 12 nM
C[C@@H](CNc1ccc(OC(F)(F)F)cc1)NC(=O)[C@H](CC1CCCCC1)NC(=O)O[C@@H]1CCOC1 | 42 nM
C[C@@H](CNc1ccc(OC(F)(F)F)cc1)NC(=O)[C@H](CC1CCCCC1)NC(=O)C1CCOCC1 | 12 nM
C[C@@H](CN1CCc2cc(F)ccc21)NC(=O)[C@H](CC1CCCCC1)NC(=O)N1CCOCC1 | 87 nM
C[C@@H](CNc1ccc(OC(F)(F)F)cc1)NC(=O)[C@H](CC1CCCCC1)NC(=O)[C@@H]1CCCO1 | 53 nM
O=C(N[C@@H](CC1CCCCC1)C(=O)NCCNc1ccc(OC(F)(F)F)cc1)c1ccc(-c2cccc(F)c2)o1 | 34 nM
O=C(NCCNc1ccc(OC(F)(F)F)cc1)[C@H](CC1CCCCC1)NC(=O)N1CCOCC1 | 99 nM
O=C(N[C@@H](CC1CCCCC1)C(=O)NCCNc1ccc(OC(F)(F)F)cc1)c1ccoc1 | 6 nM
O=C(NCCNc1ccc(OC(F)(F)F)cc1)[C@H](CC1CCCCC1)NC(=O)[C@H]1CCCO1 | 658 nM

Now from value to molecule:

Ki | SMILES
11 nM | CC[C@@H](CNc1ccc(OC(F)(F)F)cc1)NC(=O)[C@H](CC1CCCCC1)NC(=O)N1CCOCC1
220 nM | CC(C)(C)C[C@H](NC(=O)N1CCOCC1)C(=O)NCCNc1ccc(OC(F)(F)F)cc1
18 nM | C[C@@H](CNc1ccc(OC(F)(F)F)cc1)NC(=O)[C@H](CC1CCCCC1)NC(=O)[C@H]1CCCO1
12 nM | C[C@@H](CNc1ccc(OC(F)(F)F)cc1)NC(=O)[C@H](CSCc1ccccc1)NC(=O)N1CCOCC1

tested on: not listed separately; assay: Solubility at pH 6.8; format: physicochemical; conditions: buffer

solubility | SMILES
43 µg/mL (≈ 75.1 µM) | C[C@@H](CNc1ccc(OC(F)(F)F)cc1)NC(=O)[C@H](CS(=O)(=O)Cc1ccccc1)NC(=O)N1CCOCC1
25 µg/mL (≈ 51.5 µM) | C[C@@H](CNc1ccc(OC(F)(F)F)cc1)NC(=O)[C@H](CC1CCCCC1)NC(=O)[C@H]1CCCO1

target: T2, Cathepsin F (Homo sapiens, UniProt Q9UBX1); assay: Inhibition of cathepsin F; conditions: not given
T2 sequence (Q9UBX1 whole entry): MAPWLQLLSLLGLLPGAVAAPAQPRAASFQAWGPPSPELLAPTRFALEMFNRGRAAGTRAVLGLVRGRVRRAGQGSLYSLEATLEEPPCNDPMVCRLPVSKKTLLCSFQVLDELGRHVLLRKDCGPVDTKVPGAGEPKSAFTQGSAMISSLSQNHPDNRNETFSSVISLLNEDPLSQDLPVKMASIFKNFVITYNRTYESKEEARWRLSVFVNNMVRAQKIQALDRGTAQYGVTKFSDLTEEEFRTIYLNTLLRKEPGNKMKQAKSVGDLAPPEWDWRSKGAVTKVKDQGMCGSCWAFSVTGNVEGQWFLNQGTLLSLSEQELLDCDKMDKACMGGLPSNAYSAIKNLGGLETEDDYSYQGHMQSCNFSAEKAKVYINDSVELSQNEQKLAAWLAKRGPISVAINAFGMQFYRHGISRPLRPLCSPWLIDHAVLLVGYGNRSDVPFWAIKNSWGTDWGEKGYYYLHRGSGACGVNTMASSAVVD

Ki | SMILES
> 30000 nM | C[C@@H](CNc1ccc(OC(F)(F)F)cc1)NC(=O)[C@H](CS(=O)(=O)Cc1ccccc1)NC(=O)N1CCOCC1

tested on: not listed separately; assay: Bioavailability in Wistar rat at 10 mg/kg, po; format: ADME, organism-based; conditions: in vivo

bioavailability | SMILES
16% | C[C@@H](CNc1ccc(OC(F)(F)F)cc1)NC(=O)[C@H](CS(=O)(=O)Cc1ccccc1)NC(=O)N1CCOCC1
36% | C[C@@H](CNc1ccc(OC(F)(F)F)cc1)NC(=O)[C@H](CC1CCCCC1)NC(=O)[C@H]1CCCO1

tested on: not listed separately; assay: Volume of distribution in Wistar rat at 3 mg/kg, iv; format: ADME, organism-based; set-up: dose 3 mg/kg, route intravenous; conditions: in vivo, read-out: Vdss

Vd | SMILES
0.87 L/kg | C[C@@H](CNc1ccc(OC(F)(F)F)cc1)NC(=O)[C@H](CS(=O)(=O)Cc1ccccc1)NC(=O)N1CCOCC1
1.78 L/kg | C[C@@H](CNc1ccc(OC(F)(F)F)cc1)NC(=O)[C@H](CC1CCCCC1)NC(=O)[C@H]1CCCO1

tested on: not listed separately; assay: Half life in Wistar rat at 3 mg/kg, iv; format: ADME, organism-based; set-up: dose 3 mg/kg, route intravenous; conditions: in vivo

half-life | SMILES
0.817 h | C[C@@H](CNc1ccc(OC(F)(F)F)cc1)NC(=O)[C@H](CS(=O)(=O)Cc1ccccc1)NC(=O)N1CCOCC1
1.1 h | C[C@@H](CNc1ccc(OC(F)(F)F)cc1)NC(=O)[C@H](CC1CCCCC1)NC(=O)[C@H]1CCCO1

target: Cathepsin Z (Homo sapiens, UniProt Q9UBR2); assay: Inhibition of cathepsin X; conditions: not given
Sequence (Q9UBR2 whole entry): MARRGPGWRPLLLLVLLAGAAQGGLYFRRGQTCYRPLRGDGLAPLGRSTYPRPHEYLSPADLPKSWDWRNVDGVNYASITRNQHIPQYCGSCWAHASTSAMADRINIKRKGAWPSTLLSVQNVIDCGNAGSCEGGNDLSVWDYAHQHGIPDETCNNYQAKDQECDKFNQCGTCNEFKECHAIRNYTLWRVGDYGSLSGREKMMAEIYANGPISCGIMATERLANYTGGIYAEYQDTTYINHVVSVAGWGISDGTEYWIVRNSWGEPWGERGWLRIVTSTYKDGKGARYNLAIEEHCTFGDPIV

Ki | SMILES
> 30000 nM | C[C@@H](CNc1ccc(OC(F)(F)F)cc1)NC(=O)[C@H](CS(=O)(=O)Cc1ccccc1)NC(=O)N1CCOCC1

tested on: Liver microsomes; assay: Stability in rat liver microsomes; format: ADME, Microsome; conditions: not given

Stability | SMILES
100% | C[C@@H](CNc1ccc(OC(F)(F)F)cc1)NC(=O)[C@H](CS(=O)(=O)Cc1ccccc1)NC(=O)N1CCOCC1
66% | C[C@@H](CNc1ccc(OC(F)(F)F)cc1)NC(=O)[C@H](CC1CCCCC1)NC(=O)[C@H]1CCCO1

target: T3, Pro-cathepsin H (Homo sapiens, UniProt P09668); assay: Inhibition of cathepsin H; conditions: not given
T3 sequence (P09668 whole entry): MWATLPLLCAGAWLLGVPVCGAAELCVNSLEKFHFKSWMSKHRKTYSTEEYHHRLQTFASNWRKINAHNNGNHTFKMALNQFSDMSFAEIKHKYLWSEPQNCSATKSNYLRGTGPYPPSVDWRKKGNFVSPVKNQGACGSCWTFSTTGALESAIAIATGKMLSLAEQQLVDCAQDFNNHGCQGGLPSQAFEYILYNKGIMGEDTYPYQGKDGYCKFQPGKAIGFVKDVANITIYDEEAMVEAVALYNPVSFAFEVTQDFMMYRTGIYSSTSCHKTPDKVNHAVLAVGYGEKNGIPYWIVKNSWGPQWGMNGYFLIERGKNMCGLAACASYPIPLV

Ki | SMILES
> 30000 nM | C[C@@H](CNc1ccc(OC(F)(F)F)cc1)NC(=O)[C@H](CS(=O)(=O)Cc1ccccc1)NC(=O)N1CCOCC1

target: Procathepsin L (Homo sapiens, UniProt P07711); conditions: not given
Sequence (P07711 whole entry): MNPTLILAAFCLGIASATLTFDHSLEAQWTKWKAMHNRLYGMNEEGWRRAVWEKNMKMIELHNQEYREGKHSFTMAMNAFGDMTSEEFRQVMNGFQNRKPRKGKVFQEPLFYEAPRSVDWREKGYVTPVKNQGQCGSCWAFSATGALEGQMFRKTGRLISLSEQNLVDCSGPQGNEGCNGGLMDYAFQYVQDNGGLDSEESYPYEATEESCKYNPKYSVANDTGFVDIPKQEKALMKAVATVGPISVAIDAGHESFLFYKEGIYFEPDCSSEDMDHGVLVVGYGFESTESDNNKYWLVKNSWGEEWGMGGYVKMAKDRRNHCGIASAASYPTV

SMILES | Ki
C[C@@H](CNc1ccc(OC(F)(F)F)cc1)NC(=O)[C@H](CC1CCCCC1)NC(=O)O[C@@H]1CCOC1 | 2570 nM
C[C@@H](CNc1ccc(OC(F)(F)F)cc1)NC(=O)[C@H](CS(=O)(=O)Cc1ccccc1)NC(=O)N1CCOCC1 | > 30000 nM
O=C(NCCNc1ccc(OC(F)(F)F)cc1)[C@H](CC1CCCCC1)NC(=O)[C@H]1CCCO1 | 3120 nM

Other lines, results leading:

Ki | SMILES
6 nM | CC[C@@H](CNc1ccc(OC(F)(F)F)cc1)NC(=O)[C@H](CC1CCCCC1)NC(=O)N1CCOCC1
> 30000 nM | CC(C)(C)C[C@H](NC(=O)N1CCOCC1)C(=O)NCCNc1ccc(OC(F)(F)F)cc1

tested on: not listed separately; assay: Cmax in Wistar rat at 10 mg/kg, po; format: ADME, organism-based; set-up: dose 10 mg/kg, route oral; conditions: in vivo

Cmax | SMILES
639 nM | C[C@@H](CNc1ccc(OC(F)(F)F)cc1)NC(=O)[C@H](CS(=O)(=O)Cc1ccccc1)NC(=O)N1CCOCC1
1240 nM | C[C@@H](CNc1ccc(OC(F)(F)F)cc1)NC(=O)[C@H](CC1CCCCC1)NC(=O)[C@H]1CCCO1

target: T4, Cathepsin L2 (Homo sapiens, UniProt O60911); assay: Inhibition of cathepsin V; conditions: not given
T4 sequence (O60911 whole entry): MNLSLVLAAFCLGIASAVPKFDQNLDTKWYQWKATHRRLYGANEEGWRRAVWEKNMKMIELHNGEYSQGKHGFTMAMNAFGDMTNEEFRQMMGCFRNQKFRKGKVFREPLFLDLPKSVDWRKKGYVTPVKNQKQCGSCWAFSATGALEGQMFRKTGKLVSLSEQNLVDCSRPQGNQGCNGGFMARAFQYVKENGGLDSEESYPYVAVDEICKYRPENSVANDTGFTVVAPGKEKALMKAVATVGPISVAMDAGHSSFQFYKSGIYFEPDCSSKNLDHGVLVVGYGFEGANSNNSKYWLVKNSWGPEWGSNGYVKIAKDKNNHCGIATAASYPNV

Ki | SMILES
> 30000 nM | C[C@@H](CNc1ccc(OC(F)(F)F)cc1)NC(=O)[C@H](CS(=O)(=O)Cc1ccccc1)NC(=O)N1CCOCC1

tested on: not listed separately; assay: Half life in Wistar rat at 10 mg/kg, po; format: ADME, organism-based; set-up: dose 10 mg/kg, route oral; conditions: in vivo

half-life | SMILES
1.1 h | C[C@@H](CNc1ccc(OC(F)(F)F)cc1)NC(=O)[C@H](CS(=O)(=O)Cc1ccccc1)NC(=O)N1CCOCC1
0.967 h | C[C@@H](CNc1ccc(OC(F)(F)F)cc1)NC(=O)[C@H](CC1CCCCC1)NC(=O)[C@H]1CCCO1

target: Cathepsin B (Homo sapiens, UniProt P07858); assay: Inhibition of cathepsin B; conditions: not given

Ki | SMILES
> 30000 nM | C[C@@H](CNc1ccc(OC(F)(F)F)cc1)NC(=O)[C@H](CS(=O)(=O)Cc1ccccc1)NC(=O)N1CCOCC1

tested on: not listed separately; assay: Clearance in Wistar rat at 3 mg/kg, iv; format: ADME, organism-based; set-up: dose 3 mg/kg, route intravenous; conditions: in vivo

clearance | SMILES
39 mL/min/kg | C[C@@H](CNc1ccc(OC(F)(F)F)cc1)NC(=O)[C@H](CS(=O)(=O)Cc1ccccc1)NC(=O)N1CCOCC1
35 mL/min/kg | C[C@@H](CNc1ccc(OC(F)(F)F)cc1)NC(=O)[C@H](CC1CCCCC1)NC(=O)[C@H]1CCCO1
